Holding throughout (type): functional
Test [1] has as its system Pseudoperonospora cubensis. The experiment in a line: Fungicidal activity against Pseudoperonospora cubensis assessed as cucumber downy mildew disease control at 31.3 ppm foliar application 24 hr before inoculation on upper surface of leaf by preventive manner.
Test [2] deals with Podosphaera fuliginea. The experiment in a line: Fungicidal activity against Podosphaera fuliginea assessed as cucumber powdery mildew control under greenhouse at 125 ppm foliar application 24 hr before inoculation on upper surface of leaf at 23 +/- 2 degC by preventive manner.
Test [3] relates to Podosphaera fuliginea. Description: Fungicidal activity against Podosphaera fuliginea assessed as cucumber powdery mildew control under greenhouse at 7.8 ppm foliar application 24 hr after inoculation on upper surface of leaf at 23 +/- 2 degC by curative manner.
Test [4] relates to Pyricularia oryzae. Description: Fungicidal activity against Magnaporthe oryzae assessed as rice blast disease control at 0.16 ppm submerged application measured after 7 days.
The subject of test [5] is Pseudoperonospora cubensis. Description: Fungicidal activity against Pseudoperonospora cubensis assessed as cucumber downy mildew disease control at 125 ppm foliar application 24 hr before inoculation on upper surface of leaf by preventive manner.
The test system of test [6] is Podosphaera fuliginea. The experiment in a line: Fungicidal activity against Podosphaera fuliginea assessed as cucumber powdery mildew control under greenhouse at 2 ppm foliar application 24 hr before inoculation on upper surface of leaf at 23 +/- 2 degC by preventive manner.
The test system of test [7] is Podosphaera fuliginea. The experiment in a line: Fungicidal activity against Podosphaera fuliginea assessed as cucumber powdery mildew control under greenhouse at 31.3 ppm foliar application 24 hr after inoculation on upper surface of leaf at 23 +/- 2 degC by curative manner.
For test [8], the system named is Pyricularia oryzae. Description: Fungicidal activity against Magnaporthe oryzae assessed as rice blast disease control at 10 ppm submerged application measured after 7 days.
Test [9] has as its system Pseudoperonospora cubensis. The experiment in a line: Fungicidal activity against Pseudoperonospora cubensis assessed as cucumber downy mildew disease control at 2 ppm foliar application 24 hr before inoculation on upper surface of leaf by preventive manner.
For test [10], the system named is Thanatephorus cucumeris. The experiment in a line: Fungicidal activity against Thanatephorus cucumeris assessed as rice sheath blight disease control at 7.8 ppm foliar application for 24 hr before inoculation at 26 +- 2 measured after 5 days by preventive manner.
Test [11] has as its system Thanatephorus cucumeris. The experiment in a line: Fungicidal activity against Thanatephorus cucumeris assessed as rice sheath blight disease control at 2 ppm foliar application for 24 hr before inoculation at 26 +- 2 measured after 5 days by preventive manner.
For test [12], the system named is Botrytis cinerea. Description: Fungicidal activity against Botryotinia fuckeliana assessed as cucumber gray mold disease control at 31.3 ppm foliar application 24 hr after inoculation at 22 +/- 2 degC measured after 3 days by curative manner.
Test [13] has as its system Podosphaera fuliginea. The experiment in a line: Fungicidal activity against Podosphaera fuliginea assessed as cucumber powdery mildew control under greenhouse at 2 ppm foliar application 24 hr after inoculation on upper surface of leaf at 23 +/- 2 degC by curative manner.
Test [14] deals with Botrytis cinerea. The experiment in a line: Fungicidal activity against Botryotinia fuckeliana assessed as cucumber gray mold disease control at 7.8 ppm foliar application 24 hr after inoculation at 22 +/- 2 degC measured after 3 days by curative manner.
The subject of test [15] is Podosphaera fuliginea. Description: Fungicidal activity against Podosphaera fuliginea assessed as cucumber powdery mildew control under greenhouse at 31.3 ppm foliar application 24 hr before inoculation on upper surface of leaf at 23 +/- 2 degC by preventive manner.
Test [16] deals with Pyricularia oryzae. The experiment in a line: Fungicidal activity against Magnaporthe oryzae assessed as rice blast disease control at 2.5 ppm submerged application measured after 7 days.
For test [17], the system named is Thanatephorus cucumeris. The experiment in a line: Fungicidal activity against Thanatephorus cucumeris assessed as rice sheath blight disease control at 31.3 ppm foliar application for 24 hr before inoculation at 26 +- 2 measured after 5 days by preventive manner.
The subject of test [18] is Botrytis cinerea. The experiment in a line: Fungicidal activity against Botryotinia fuckeliana assessed as cucumber gray mold disease control at 2 ppm foliar application 24 hr after inoculation at 22 +/- 2 degC measured after 3 days by curative manner.
Test [19] deals with Podosphaera fuliginea. The experiment in a line: Fungicidal activity against Podosphaera fuliginea assessed as cucumber powdery mildew control under greenhouse at 125 ppm foliar application 24 hr after inoculation on upper surface of leaf at 23 +/- 2 degC by curative manner.
Test [20] relates to Pyricularia oryzae. Description: Fungicidal activity against Magnaporthe oryzae assessed as rice blast disease control at 0.63 ppm submerged application measured after 7 days.
Test [21] concerns Podosphaera fuliginea. Description: Fungicidal activity against Podosphaera fuliginea assessed as cucumber powdery mildew control under greenhouse at 7.8 ppm foliar application 24 hr before inoculation on upper surface of leaf at 23 +/- 2 degC by preventive manner.
For test [22], the system named is Botrytis cinerea. The experiment in a line: Fungicidal activity against Botryotinia fuckeliana assessed as cucumber gray mold disease control at 125 ppm foliar application 24 hr after inoculation at 22 +/- 2 degC measured after 3 days by curative manner.
In test [23] the test system is Pseudoperonospora cubensis. The experiment in a line: Fungicidal activity against Pseudoperonospora cubensis assessed as cucumber downy mildew disease control at 7.8 ppm foliar application 24 hr before inoculation on upper surface of leaf by preventive manner.
Test [24] deals with Thanatephorus cucumeris. The experiment in a line: Fungicidal activity against Thanatephorus cucumeris assessed as rice sheath blight disease control at 125 ppm foliar application for 24 hr before inoculation at 26 +- 2 measured after 5 days by preventive manner.

In the case of `CNC(=O)/C(=N/OC)c1ccccc1Oc1ccc(C(C)C)cc1`, the Activity in [1] was found to be 70%; with Podosphaera fuliginea [2], 70%; in the test with Podosphaera fuliginea [3], 50%; in the test with Pyricularia oryzae [4], 50%; in [5] it was 70%; with Podosphaera fuliginea [6] it was 70%. The Activity came to 50% with Podosphaera fuliginea [7]; 50% with Pyricularia oryzae [8]; 70% in test [9]; 70% with Thanatephorus cucumeris [10]; 70% in the test with Thanatephorus cucumeris [11]; 50% in the test with Botrytis cinerea [12]. Further, the Activity with Podosphaera fuliginea [13] came out at 50%; with Botrytis cinerea [14], 50%; with Podosphaera fuliginea [15], 70%; in the test with Pyricularia oryzae [16], 50%; in the test on Thanatephorus cucumeris [17] it was 70%; with Botrytis cinerea [18], 50%. In addition, the Activity turned out to be 50% in the test with Podosphaera fuliginea [19]; 50% in the test on Pyricularia oryzae [20]; 70% with Podosphaera fuliginea [21]; 50% with Botrytis cinerea [22]; 70% in test [23]; 70% in the test with Thanatephorus cucumeris [24].

Regarding `CNC(=O)/C(=N/OC)c1ccccc1Oc1ccc(C)cc1`, the Activity in test [1] is recorded as less than 70%; with Podosphaera fuliginea [2], 70%; with Podosphaera fuliginea [3], 50%; in the test on Pyricularia oryzae [4] it was 50%; in test [5] it was less than 70%; with Podosphaera fuliginea [6], 70%. For the same molecule, the Activity is 50% with Podosphaera fuliginea [7]; 50% in the test on Pyricularia oryzae [8]; less than 70% in [9]; 70% with Thanatephorus cucumeris [10]; 70% with Thanatephorus cucumeris [11]; 50% in the test with Botrytis cinerea [12]. The Activity in the test with Podosphaera fuliginea [13] was determined as 50%; in the test with Botrytis cinerea [14], 50%; in the test on Podosphaera fuliginea [15] it was 70%; with Pyricularia oryzae [16] it was 50%; in the test with Thanatephorus cucumeris [17], 70%; with Botrytis cinerea [18], 50%. Moreover, the Activity is 50% with Podosphaera fuliginea [19]; 50% in the test on Pyricularia oryzae [20]; 70% in the test with Podosphaera fuliginea [21]; 50% in the test with Botrytis cinerea [22]; less than 70% in test [23]; 70% in the test on Thanatephorus cucumeris [24].

Take `CNC(=O)/C(=N/OC)c1ccccc1Oc1cccc(OCc2ccccc2)c1`: the Activity is 70% in test [1]; 70% with Podosphaera fuliginea [2]; 50% in the test with Podosphaera fuliginea [3]; less than 50% in the test with Pyricularia oryzae [4]; 70% in [5]; 70% in the test on Podosphaera fuliginea [6]. Besides, the Activity in the test with Podosphaera fuliginea [7] is on record as 50%; with Pyricularia oryzae [8] it was less than 50%; in [9], 70%; in the test on Thanatephorus cucumeris [10] it was 70%; in the test on Thanatephorus cucumeris [11], 70%; in the test on Botrytis cinerea [12], 50%. Further, the Activity with Podosphaera fuliginea [13] is listed as 50%; in the test with Botrytis cinerea [14] it was 50%; with Podosphaera fuliginea [15], 70%; with Pyricularia oryzae [16], less than 50%; with Thanatephorus cucumeris [17], 70%; in the test on Botrytis cinerea [18], 50%. The Activity in the test with Podosphaera fuliginea [19] is reported as 50%; with Pyricularia oryzae [20], less than 50%; with Podosphaera fuliginea [21], 70%; with Botrytis cinerea [22], 50%; in test [23], 70%; with Thanatephorus cucumeris [24] it was 70%.

With `CNC(=O)/C(=N/OC)c1ccccc1Oc1cccc(OCC#N)c1`, the Activity in [1] is less than 70%; with Podosphaera fuliginea [2], 70%; in the test with Podosphaera fuliginea [3], 50%; with Pyricularia oryzae [4] it was less than 50%; in test [5], less than 70%; in the test with Podosphaera fuliginea [6] it was 70%. Also, the Activity is recorded as 50% in the test with Podosphaera fuliginea [7]; less than 50% with Pyricularia oryzae [8]; less than 70% in test [9]; less than 70% in the test with Thanatephorus cucumeris [10]; less than 70% in the test on Thanatephorus cucumeris [11]; 50% in the test with Podosphaera fuliginea [13]. The Activity with Podosphaera fuliginea [15] is recorded as 70%; in the test with Pyricularia oryzae [16] it was less than 50%; in the test with Thanatephorus cucumeris [17], less than 70%; in the test on Podosphaera fuliginea [19], 50%; with Pyricularia oryzae [20], less than 50%; with Podosphaera fuliginea [21] it was 70%. Also, the Activity (in test [23]; in the test on Thanatephorus cucumeris [24]) was less than 70% each time.

Consider `CNC(=O)/C(=N/OC)c1ccccc1Oc1ccccc1C`, for which the Activity in [1] is less than 70%; with Podosphaera fuliginea [2], 70%; in the test on Podosphaera fuliginea [3], 50%; in the test with Pyricularia oryzae [4], 50%; in test [5], less than 70%; in the test on Podosphaera fuliginea [6], 70%. The Activity was 50% with Podosphaera fuliginea [7]; 50% in the test with Pyricularia oryzae [8]; less than 70% in [9]; less than 70% in the test on Thanatephorus cucumeris [10]; less than 70% in the test with Thanatephorus cucumeris [11]; 50% with Botrytis cinerea [12]. Further, the Activity with Podosphaera fuliginea [13] is recorded as 50%; in the test on Botrytis cinerea [14], 50%; in the test with Podosphaera fuliginea [15], 70%; in the test on Pyricularia oryzae [16], 50%; in the test on Thanatephorus cucumeris [17], less than 70%; in the test with Botrytis cinerea [18], 50%. In addition, the Activity is reported as 50% in the test on Podosphaera fuliginea [19]; 50% in the test with Pyricularia oryzae [20]; 70% in the test on Podosphaera fuliginea [21]; 50% in the test on Botrytis cinerea [22]; less than 70% in test [23]; less than 70% in the test on Thanatephorus cucumeris [24].

Take `CNC(=O)/C(=N/OC)c1ccccc1Oc1ccc(C(C)C)cc1C(C)C`: the Activity is recorded as less than 70% in test [1]; 70% with Podosphaera fuliginea [2]; 50% in the test with Podosphaera fuliginea [3]; 50% in the test on Pyricularia oryzae [4]; less than 70% in test [5]; 70% in the test with Podosphaera fuliginea [6]. Further, the Activity in the test on Podosphaera fuliginea [7] is recorded as 50%; in the test on Pyricularia oryzae [8], 50%; in test [9] it was less than 70%; with Thanatephorus cucumeris [10], 70%; in the test with Thanatephorus cucumeris [11], 70%; in the test with Podosphaera fuliginea [13], 50%. In addition, the Activity in the test with Podosphaera fuliginea [15] was 70%; in the test with Pyricularia oryzae [16], 50%; in the test on Thanatephorus cucumeris [17], 70%; in the test with Podosphaera fuliginea [19], 50%; in the test on Pyricularia oryzae [20], 50%; with Podosphaera fuliginea [21], 70%. Also, the values for the Activity (in test [23]; in the test on Thanatephorus cucumeris [24]) were less than 70% and 70%, respectively.

In the case of `CNC(=O)/C(=N/OC)c1ccccc1Oc1ccc(Oc2ccccc2)cc1`, the Activity was less than 70% in test [1]; 70% with Podosphaera fuliginea [2]; 50% with Podosphaera fuliginea [3]; 50% in the test with Pyricularia oryzae [4]; less than 70% in test [5]; 70% in the test on Podosphaera fuliginea [6]. Also, the Activity is listed as 50% in the test with Podosphaera fuliginea [7]; 50% in the test on Pyricularia oryzae [8]; less than 70% in [9]; 70% in the test with Thanatephorus cucumeris [10]; 70% in the test with Thanatephorus cucumeris [11]; 50% in the test on Podosphaera fuliginea [13]. Besides, the Activity with Podosphaera fuliginea [15] is recorded as 70%; with Pyricularia oryzae [16] it was 50%; in the test with Thanatephorus cucumeris [17] it was 70%; in the test on Podosphaera fuliginea [19] it was 50%; with Pyricularia oryzae [20], 50%; in the test with Podosphaera fuliginea [21] it was 70%. Also, the Activity in test [23] is less than 70%; with Thanatephorus cucumeris [24] it was 70%.

Values taken from ChEMBL document CHEMBL3045600, “Synthesis and Fungicidal Activities of Phenoxyphenyl Alkoxyiminoacetamide Derivatives” (J Pestic Sci, 1998).
